Reference: US7183315B2, “Silver salts of sucrose-octasulphate” (Interalia S.R.L., priority 2001, dated 2007)

Assays:
[1] = Stability in solid state and aqueous solution; format: physicochemical; settings: obtained according to example 3
[2] = Solubility of the product; format: physicochemical; settings: product of example 1
[3] = test system: Staphylococcus Aureus ATCC 6538; assay: Bacterial growth inhibition test by diffusion in agar (seeded by inclusion, 8 mm wells); format: cell-based
Source text: The inhibition of bacterial growth has been, in this case, evaluated on a confluent bacterial culture of Staphylococcus aureus ATCC 6538 obtained on solid medium, according to the seeding method for inclusion. Serial dilutions of the test products, of known Ag titre, have been deposited inside 8 mm diameter wells formed in the medium in direct contact with the bacteria Staphylococcus aureus ATCC 6538. The antibacterial activity of the products under test have been evaluated, after appropriate incubations, by measuring the halos of inhibition around each well (tables 3 and 4).

S. aureus ATCC 6538 [4] = assay: Diffusion method in agar, cellulose disks of 13 mm; format: cell-based, Staphylococcus aureus; settings: 72 hours at 37° C.
Experimental: (§1) The characterisation of the antibacterial activity has been carried out using the method of diffusion in agar, placing the substances in contact with confluent bacterial cultures on solid medium. The experiments have been carried out according to two distinct methods: 1) wetting sterile cellulose disks, 13 mm in diameter with 100 μl of solutions at serial dilutions of the product of known Ag titre. […] 100 μl of the solutions containing the products at known concentrations of Ag are placed on the base of the wells, and the bacteriocidal activity is observed after 72 hours of incubation at 37° C. against a blank constituted of just the solvent used for the solubilisation of the products.

S. aureus ATCC 6538 [5] = assay: Diffusion method in agar, seeded by inclusion, 8 mm wells, 72 h; format: cell-based, Staphylococcus aureus; settings: 72 hours at 37° C.
Experimental: as §1

[6] = test system: Staphylococcus Aureus ATCC 6538; assay: Bacterial growth inhibition test in culture broth; format: cell-based; set-up: key to inhibition of S. aureus ATCC 6538 growth / inhibition of S. aureus ATCC 6538: − growth; + inhibition; settings: for inhibition of S. aureus ATCC 6538: Table 2
Experimental: Serial dilutions of known titre of the two products SOS-Ag and Katoxyn, the latter containing Ag in the form of metallic silver (silver […]® collodial chemical), have been placed directly in contact with the test microorganism (Staphylococcus Aureus ATCC 6538) for incubation in culture broth under agitation. The effect of the substances on cellular growth has been measured by evaluating the absence of turbidity in the culture medium. The anti bacterial activity has been verified by the seeding of 1 ml of culture broth in an […] medium, with observations at 7, 14, 21, 28 days from the beginning of the experiment (tables 1 and 2).

Candida albicans = settings: preservative in cosmetic preparations; cited from earlier work
Staphylococcus aureus = settings: preservative in cosmetic preparations; cited from earlier work
Pseudomonas aeruginosa = settings: preservative in cosmetic preparations; cited from earlier work

## silver salts of sucrose-octasulphate [SOS-Ag]
[1]; aqueous solution
  stability in aqueous solution: good stability
[1]; solid state
  stability in the solid state: good stability
[2]; organic solvents
  Solubility in organic solvents: particularly insoluable
[2]; water
  Solubility in water: very soluble
[3]; Ag titre 1 × 10^−3 M, 8 mm wells
  Halo of inhibition: 13 mm
[3]; Ag titre 1 × 10^−4 M, 8 mm wells
  Halo of inhibition: 0 mm
[3]; Ag titre 5 × 10^−4 M, 8 mm wells
  Halo of inhibition: 0 mm
S. aureus ATCC 6538 [4]; Ag titre 10^−2 M
  Halo of inhibition: 15.3 mm
S. aureus ATCC 6538 [4]; Ag titre 10^−3 M
  Halo of inhibition: 12 mm
S. aureus ATCC 6538 [4]; Ag titre 10^−4 M
  Halo of inhibition: 0 mm
S. aureus ATCC 6538 [4]; Ag titre 10^−5 M
  Halo of inhibition: 0 mm
S. aureus ATCC 6538 [5]; Ag titre 10^−2 M
  Halo of inhibition: 14.5 mm
S. aureus ATCC 6538 [5]; Ag titre 10^−3 M
  Halo of inhibition: 14 mm
S. aureus ATCC 6538 [5]; Ag titre 10^−4 M
  Halo of inhibition: 0 mm
S. aureus ATCC 6538 [5]; Ag titre 10^−5 M
  Halo of inhibition: 0 mm
[6]; Ag titre 1 × 10^−2 M, 7 days
  inhibition of S. aureus ATCC 6538 growth: +
[6]; Ag titre 1 × 10^−2 M, 14 days
  inhibition of S. aureus ATCC 6538 growth: +
[6]; Ag titre 1 × 10^−2 M, 21 days
  inhibition of S. aureus ATCC 6538 growth: +
[6]; Ag titre 1 × 10^−2 M, 28 days
  inhibition of S. aureus ATCC 6538 growth: +
[6]; Ag titre 1 × 10^−3 M, 7 days
  inhibition of S. aureus ATCC 6538 growth: +
[6]; Ag titre 1 × 10^−3 M, 14 days
  inhibition of S. aureus ATCC 6538 growth: +
[6]; Ag titre 1 × 10^−3 M, 21 days
  inhibition of S. aureus ATCC 6538 growth: +
[6]; Ag titre 1 × 10^−3 M, 28 days
  inhibition of S. aureus ATCC 6538 growth: +
[6]; Ag titre 1 × 10^−4 M, 7 days
  inhibition of S. aureus ATCC 6538 growth: −
[6]; Ag titre 1 × 10^−4 M, 14 days
  inhibition of S. aureus ATCC 6538 growth: −
[6]; Ag titre 1 × 10^−4 M, 21 days
  inhibition of S. aureus ATCC 6538 growth: −
[6]; Ag titre 1 × 10^−4 M, 28 days
  inhibition of S. aureus ATCC 6538 growth: −
[6]; Ag titre 1 × 10^−5 M, 7 days
  inhibition of S. aureus ATCC 6538 growth: −
[6]; Ag titre 1 × 10^−5 M, 14 days
  inhibition of S. aureus ATCC 6538 growth: −
[6]; Ag titre 1 × 10^−5 M, 21 days
  inhibition of S. aureus ATCC 6538 growth: −
[6]; Ag titre 1 × 10^−5 M, 28 days
  inhibition of S. aureus ATCC 6538 growth: −
[6]; Ag titre 5 × 10^−4 M, 7 days
  inhibition of S. aureus ATCC 6538 growth: −
[6]; Ag titre 5 × 10^−4 M, 14 days
  inhibition of S. aureus ATCC 6538 growth: −
[6]; Ag titre 5 × 10^−4 M, 21 days
  inhibition of S. aureus ATCC 6538 growth: −
[6]; Ag titre 5 × 10^−4 M, 28 days
  inhibition of S. aureus ATCC 6538 growth: −
[6]; S. aureus ATCC 6538, summary of tables 1-4 (culture broth and agar diffusion)
  concentration of Ag at which the product has been effective / active: 1 mM

## CC1(C)S[C@@H]2[C@H](NC(=O)[C@H](N)c3ccccc3)C(=O)N2[C@H]1C(=O)O [ampicillin, reference compound]
[3]; Concentration 5 I.U./ml, positive control
  Halo of inhibition: 11 mm
[3]; Concentration 10 I.U./ml, positive control
  Halo of inhibition: 20 mm
[3]; Concentration 20 I.U./ml, positive control
  Halo of inhibition: 39 mm
[6]; positive control, Table 1, 7 days
  inhibition of S. aureus ATCC 6538 growth: +
[6]; positive control, Table 1, 14 days
  inhibition of S. aureus ATCC 6538 growth: +
[6]; positive control, Table 1, 21 days
  inhibition of S. aureus ATCC 6538 growth: +
[6]; positive control, Table 1, 28 days
  inhibition of S. aureus ATCC 6538 growth: +
[6]; positive control, 7 days
  inhibition of S. aureus ATCC 6538: +
[6]; positive control, 14 days
  inhibition of S. aureus ATCC 6538: +
[6]; positive control, 21 days
  inhibition of S. aureus ATCC 6538: +
[6]; positive control, 28 days
  inhibition of S. aureus ATCC 6538: +

## [Ag] [silver]
Candida albicans
  concentration of silver showing activity: 10^−5 M
Staphylococcus aureus
  concentration of silver showing activity: 10^−5 M
Pseudomonas aeruginosa
  concentration of silver showing activity: 10^−5 M
